From patent US20050130986A1, “Treatment of spondylarthropathies” (priority 2003, published 2005)
Entries after “also recorded” stand apart in the source; their conditions may differ. Blank lines part the entries; values can stand above or below the molecule they belong to.

Legend:
[1] = tested on: patient with severe spondyloarthropathy; experiment: Findings in a patient with severe spondyloarthropathy (Example 1, 18 month treatment); assay type: in vivo, human; conditions: for efficacy of previous anti-rheumatic medication: patient history, used alone and in various combinations
Excerpt: The patient is a person who has radiologically verified bilateral sacroilitis and disease of large joints. They are also positive for the HLA-B27 antigen. The patient fulfills the ESSG criteria and the Amor criteria for spondylarthorpathy. […] In addition they have had symptoms also in small peripheral joints such as fingers and toes. […] The previous anti-rheumatic medication has included methotrexate, cyclosporine, infliximab, intramusclar.
During the study the vital signs and blood chemistry was controlled first weekly, then biweekly and after three months once per month.
No corticosteroid injections are given.

[2] = tested on: patient with psoriasis arthropathy
spondylarthropathy = conditions: cited from earlier work; for efficacy observed in spondylarthropathy: mainly in the treatment of peripheral arthritis

Molecule: Cn1cnc([N+](=O)[O-])c1Sc1ncnc2nc[nH]c12 [azathioprine, reference compound]
efficacy of previous anti-rheumatic medication [1]: inefficient

Molecule: Cc1oncc1C(=O)Nc1ccc(C(F)(F)F)cc1 [leflunomide, reference compound]
efficacy of previous anti-rheumatic medication [1]: inefficient

Molecule: CN(Cc1cnc2nc(N)nc(N)c2n1)c1ccc(C(=O)N[C@@H](CCC(=O)O)C(=O)O)cc1 [methotrexate, reference compound]
efficacy of previous anti-rheumatic medication [1]: inefficient
efficacy of previous anti-rheumatic therapy ([2]; patient history, methotrexate 20 mg per week, cyclosporine 150 mg, discontinued): lack of efficacy
efficacy in sporiasis arthropathy (spondylarthropathy; in vivo): some efficacy
efficacy observed in spondylarthropathy (spondylarthropathy): minor efficacy

infections during the treatment ([1]; 18 months of treatment): no significant infections
Molecule: Cc1ccc(NC(=O)c2ccc(CN3CCN(C)CC3)cc2)cc1Nc1nccc(-c2cccnc2)n1 [study drug, 4-[(4-methyl-1-piperazin-1-ylmethyl)-N-[4-methyl-3-[4-(3-pyridinyl)-2-pyrimidinyl]amino]phenyl]benzamide Monomethanesulfonate]
swollen joint count ([1]; after 18 month treatment, 31 before treatment, oral, up to 400 mg per day, added to hydroxychloroquine, prednisone, ibuprofen): 5
side effects ([1]; after 18 months of treatment): no serious side effects have been observed; also recorded: slight dryness of the skin
health assessment questionnaire score (HAQ) ([1]; after 18 months of treatment, 1.5 before treatment, high score = high disability): 0.75
time after start at which antirheumatic effect could be observed (movements in shoulder joints improved) ([1]; after study drug was started): two
CRP ([1]; after the treatment (18 months), 42 mg/L before treatment): 11 mg/L
tender joint count ([1]; after the treatment (18 months), 10 before treatment): 1
erythrocyte sedimentation rate ([1]; after the treatment (18 months), 28 mm/h before treatment): 11 mm/h
pain experienced by the patient, visual analogue scale (VAS) ([1]; after treatment (18 months), 37 mm before treatment): 11 mm
disease activity as estimated by the patient (VAS) ([1]; after treatment (18 months), 69 mm before treatment): 11 mm
side effects or infections during the treatment ([2]; 3 month study): No serious side effects or infections; also recorded: slight tiredness and mild muscle cramps
number of swollen joints ([2]; after three month treatment, from 5, oral, up to 400 mg per day, added to naproxen, injected joints omitted): 2
BASDAI score ([2]; after three month treatment, from 6.5): 3.1
number of tender joints ([2]; after three month treatment, from 10): 0
general pain (VAS) ([2]; after three month treatment, from 33 mm): 12 mm
night pain experienced by the patient (VAS) ([2]; after three month treatment, from 34 mm): 4 mm
ESR ([2]; after three month treatment, from 40): 12
disease activity (VAS) ([2]; after three month treatment, from 41 mm): 23 mm
CRP ([2]; after three month treatment, from 47): 25

Molecule: O=C(O)c1cc(/N=N/c2ccc(S(=O)(=O)Nc3ccccn3)cc2)ccc1O [sulfasalazine]
efficacy observed in spondylarthropathy (spondylarthropathy): minor efficacy

Molecule: infliximab
efficacy of previous anti-rheumatic medication [1]: inefficient
